Our source for the Ki and type of inhibition values is publication PMC9295122, “Sialic Acid Derivatives Inhibit SiaT Transporters and Delay Bacterial Growth” (ACS Chemical Biology, 2022).

The target of this assay is SiaT from S. aureus (Staphylococcus aureus, UniProt A0A0H2XJ46). Nature of the assay: [3H]Neu5Ac uptake in proteoliposomes, SaSiaT. Particulars: for type of inhibition: SaSiaT, Lineweaver–Burk plot. The protocol:
To gain further insights into the molecular mechanisms, we investigated the direct effects of compounds 3e and 3f on the transport activity in proteoliposomes reconstituted with PmSiaT and SaSiaT. A kinetic analysis was performed by measuring the concentration-dependent uptake of [^3H]Neu5Ac in the presence of two different concentrations of the inhibitors 3f (Figure 5a,c) or 3e (Figure 5b,d).
Figure 5 Kinetic analysis of the inhibition of recombinant SiaT from P. mirabilis (A,B) and S. aureus (C,D) reconstituted in proteoliposomes and [^3H]Neu5Ac efflux in proteoliposomes (E,F). (a–d) Data were plotted according to Lineweaver–Burk as a reciprocal transport rate vs reciprocal Neu5Ac concentration. The transport rate was measured, in 5 min, by adding [^3H] Neu5Ac at the indicated concentrations to proteoliposomes containing 20 mM K^+-gluconate in the presence of valinomycin as described in the Supporting Information. [(A,B) P. mirabilis SiaT]; (A) compound 3f 0.25 μM (●) or 0.75 μM (□) was added in comparison to samples without inhibitor (○). (B) Compound 3e 12 μM (●) or 40 μM (□) was added in comparison to samples without an inhibitor (○). [(C,D) S. aureus SiaT]. (C) Compound 3f 80 μM (●) or 200 μM (□) was added in comparison to samples without an inhibitor (○). (D) Compound 3e 5 μM (●) or 12 μM (□) was added in comparison to samples without an inhibitor (○). Results are mean ± s.d. from four independent experiments (n = 4). […] Data are calculated as the percent of residual activity with respect to the control sample (efflux time zero). The results are the means ± s.d. of three independent experiments.
The purified SiaT from P. mirabilis and S. aureus was reconstituted by using the detergent removal procedure with the batchwise method previously pointed out.[16],[21] In brief, 2.5 μg or 5 μg of P. mirabilis and S. aureus SiaT, respectively, were mixed with 120 μL 10% C12E8, 100 μL of 10% egg yolk phospholipids (w/v, in the form of sonicated liposomes as previously described),[43] […]
For uptake experiments, 600 μL of proteoliposomes were loaded onto a Sephadex G-75 column (0.7 cm diameter × 15 cm height), pre-equilibrated with 20 mM Hepes Tris pH 7.0 with 40 mM sucrose to balance the internal osmolarity. […] For kinetic measurement, the initial transport rate was measured by stopping the reaction after 5 min, that is, within the initial linear range of [^3H]-Neu5Ac uptake into the proteoliposomes previously described. […] In both uptake and efflux experiments, the transport assay was terminated by loading each proteoliposome sample (100 μL) on a Sephadex G-75 column (0.6 cm diameter × 8 cm height) to remove the external radioactivity. Proteoliposomes were eluted with 1 mL of 50 mM NaCl and collected in a 4 mL of scintillation mixture, vortexed and counted.

Chain of SiaT from S. aureus (A0A0H2XJ46 entry or part of it): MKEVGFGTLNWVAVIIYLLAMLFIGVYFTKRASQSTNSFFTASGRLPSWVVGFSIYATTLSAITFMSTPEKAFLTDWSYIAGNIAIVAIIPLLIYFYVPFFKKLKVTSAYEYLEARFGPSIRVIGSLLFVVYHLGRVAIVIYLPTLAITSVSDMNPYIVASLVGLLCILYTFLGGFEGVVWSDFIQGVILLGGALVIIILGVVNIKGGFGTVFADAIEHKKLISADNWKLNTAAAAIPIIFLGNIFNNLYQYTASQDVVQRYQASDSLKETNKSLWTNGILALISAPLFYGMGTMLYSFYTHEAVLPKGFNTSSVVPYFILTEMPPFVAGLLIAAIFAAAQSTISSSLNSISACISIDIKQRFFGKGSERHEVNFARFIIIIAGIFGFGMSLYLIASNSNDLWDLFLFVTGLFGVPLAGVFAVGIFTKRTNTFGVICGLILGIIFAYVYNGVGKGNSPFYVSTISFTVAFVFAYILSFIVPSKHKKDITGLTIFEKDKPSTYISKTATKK

On to `CC(=O)NC1C(OCc2cc(F)cc(F)c2)CC(O)(C(=O)O)OC1C(O)C(O)CO` (stereo not shown) [Compound 3e], for which the Ki came to 2.8 ± 0.5 µM and the type of inhibition result is listed as “competitive inhibitors”.

In the case of `CC(=O)NC1C(OCc2cc(Br)cc(Br)c2)CC(O)(C(=O)O)OC1C(O)C(O)CO` (stereo not shown) [Compound 3f], the Ki stood at 53.6 ± 11.1 µM and the type of inhibition entry is “competitive inhibitors”.
